# Data as given in ChEMBL document CHEMBL4800722, “Data for DCP probe BI 605906” (2021).
# Tests used:
# [1] = biological target: Myosin light chain kinase, smooth muscle (Homo sapiens) (UniProt Q15746); assay: SMMLCK DUNDEE kinase screen (BI); details: Compound concentration 10.0 uM
# [2] = biological target: 5-hydroxytryptamine receptor 2A (Homo sapiens) (UniProt P28223); details: Compound concentration 10.0 uM
# [3] = biological target: AMP-activated protein kinase alpha-2/beta-1/gamma-3 (Homo sapiens) (UniProt P54646+Q9Y478+Q9UGI9); details: Compound concentration 1.0 uM
# [4] = biological target: D(3) dopamine receptor (Homo sapiens) (UniProt P35462); details: Compound concentration 10.0 uM
# [5] = biological target: NUAK family SNF1-like kinase 1 (Homo sapiens) (UniProt O60285); assay: NUAK1 Invitrogen Lab (UK) kinase screen (BI); details: Compound concentration 1.0 uM
# [6] = biological target: AMP-activated protein kinase alpha-2/beta-2/gamma-2 (Homo sapiens) (UniProt P54646+O43741+Q9UGJ0); assay: AMPK (A2/B2/G2) Invitrogen Lab (UK) kinase screen (BI); type: protein-complex assay; details: Compound concentration 1.0 uM
# [7] = biological target: Dual specificity protein kinase TTK (Homo sapiens) (UniProt P33981); assay: TTK Invitrogen Lab (UK) kinase screen (BI); details: Compound concentration 1.0 uM
# [8] = biological target: GABA-A receptor; anion channel (Rattus norvegicus) (UniProt O09028+P15431+P18506+P18508+P19969+P20236+P23574+P23576+P28471+P28473+P30191+P62813+P63079+P63138+Q91ZM7+Q9ES14); details: Compound concentration 10.0 uM
# [9] = biological target: Kappa-type opioid receptor (Homo sapiens) (UniProt P41145); details: Compound concentration 10.0 uM
# [10] = biological target: Endothelin-1 receptor (Homo sapiens) (UniProt P25101); details: Compound concentration 100.0 uM
# [11] = biological target: Serine/threonine-protein kinase Sgk2 (Homo sapiens) (UniProt Q9HBY8); details: Compound concentration 1.0 uM
# [12] = biological target: Angiopoietin-1 receptor (Homo sapiens) (UniProt Q02763)
# Chain of Angiopoietin-1 receptor (Homo sapiens) (Q02763 whole entry): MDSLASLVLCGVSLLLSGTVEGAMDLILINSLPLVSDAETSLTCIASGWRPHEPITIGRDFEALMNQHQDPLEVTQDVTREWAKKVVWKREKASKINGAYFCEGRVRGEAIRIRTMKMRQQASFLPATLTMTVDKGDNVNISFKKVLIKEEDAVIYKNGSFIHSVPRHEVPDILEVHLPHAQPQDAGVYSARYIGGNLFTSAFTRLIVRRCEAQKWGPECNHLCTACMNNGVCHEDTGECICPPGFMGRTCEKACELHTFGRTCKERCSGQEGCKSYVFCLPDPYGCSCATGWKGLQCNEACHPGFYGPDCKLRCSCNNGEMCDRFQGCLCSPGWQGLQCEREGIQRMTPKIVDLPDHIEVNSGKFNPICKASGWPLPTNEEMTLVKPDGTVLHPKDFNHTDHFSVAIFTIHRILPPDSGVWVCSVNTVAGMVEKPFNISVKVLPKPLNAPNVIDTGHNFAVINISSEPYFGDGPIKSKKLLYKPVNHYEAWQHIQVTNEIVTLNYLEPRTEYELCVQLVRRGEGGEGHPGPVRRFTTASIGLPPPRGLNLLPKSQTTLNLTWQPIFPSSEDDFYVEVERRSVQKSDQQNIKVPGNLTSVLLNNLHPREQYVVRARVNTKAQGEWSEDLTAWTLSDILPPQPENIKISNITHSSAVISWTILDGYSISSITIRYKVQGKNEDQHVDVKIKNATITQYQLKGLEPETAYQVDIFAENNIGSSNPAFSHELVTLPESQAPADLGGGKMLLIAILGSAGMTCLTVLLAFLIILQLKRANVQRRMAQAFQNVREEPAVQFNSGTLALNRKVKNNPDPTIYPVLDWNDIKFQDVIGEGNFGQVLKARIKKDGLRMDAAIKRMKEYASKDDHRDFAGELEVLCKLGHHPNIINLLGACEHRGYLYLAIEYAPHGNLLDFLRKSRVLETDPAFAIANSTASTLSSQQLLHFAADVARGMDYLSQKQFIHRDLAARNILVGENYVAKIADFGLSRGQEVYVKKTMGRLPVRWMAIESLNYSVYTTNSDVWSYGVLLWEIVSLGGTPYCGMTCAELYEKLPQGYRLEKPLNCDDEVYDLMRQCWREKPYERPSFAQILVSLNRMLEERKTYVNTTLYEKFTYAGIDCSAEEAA
# [13] = biological target: Ribosomal protein S6 kinase beta-1 (Homo sapiens) (UniProt P23443)
# Chain of Ribosomal protein S6 kinase beta-1 (Homo sapiens) (P23443 whole entry, looked up): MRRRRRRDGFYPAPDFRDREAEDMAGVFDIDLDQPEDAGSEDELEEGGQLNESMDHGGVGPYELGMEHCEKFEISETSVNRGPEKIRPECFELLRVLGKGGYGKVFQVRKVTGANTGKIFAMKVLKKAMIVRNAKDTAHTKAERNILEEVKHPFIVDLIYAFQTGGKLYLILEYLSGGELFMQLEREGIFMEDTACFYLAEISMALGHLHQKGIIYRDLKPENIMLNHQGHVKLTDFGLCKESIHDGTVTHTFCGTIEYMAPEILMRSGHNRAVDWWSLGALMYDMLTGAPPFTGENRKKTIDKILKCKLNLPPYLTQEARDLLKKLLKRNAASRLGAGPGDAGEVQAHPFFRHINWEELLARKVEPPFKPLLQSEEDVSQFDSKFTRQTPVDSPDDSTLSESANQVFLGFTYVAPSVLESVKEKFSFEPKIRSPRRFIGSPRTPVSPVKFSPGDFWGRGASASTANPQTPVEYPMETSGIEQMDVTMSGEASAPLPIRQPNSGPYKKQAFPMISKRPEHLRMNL
# [14] = biological target: Dual specificity testis-specific protein kinase 2 (Homo sapiens) (UniProt Q96S53); details: Compound concentration 1.0 uM
# [15] = biological target: SRSF protein kinase 3 (Homo sapiens) (UniProt Q9UPE1); details: Compound concentration 1.0 uM
# [16] = biological target: Rho-associated protein kinase 2 (Homo sapiens) (UniProt O75116); assay: ROCKII DUNDEE kinase screen (BI); details: Rattus norvegicus; Compound concentration 10.0 uM
# [17] = biological target: Ribosomal protein S6 kinase alpha-3 (Homo sapiens) (UniProt P51812); assay: MAPKAP-K1B DUNDEE kinase screen (BI); details: Compound concentration 10.0 uM
# [18] = biological target: High affinity nerve growth factor receptor (Homo sapiens) (UniProt P04629); assay: NTRK1 Invitrogen Lab (UK) kinase screen (BI)
# Chain of High affinity nerve growth factor receptor (Homo sapiens) (P04629 33-796 limits assumed): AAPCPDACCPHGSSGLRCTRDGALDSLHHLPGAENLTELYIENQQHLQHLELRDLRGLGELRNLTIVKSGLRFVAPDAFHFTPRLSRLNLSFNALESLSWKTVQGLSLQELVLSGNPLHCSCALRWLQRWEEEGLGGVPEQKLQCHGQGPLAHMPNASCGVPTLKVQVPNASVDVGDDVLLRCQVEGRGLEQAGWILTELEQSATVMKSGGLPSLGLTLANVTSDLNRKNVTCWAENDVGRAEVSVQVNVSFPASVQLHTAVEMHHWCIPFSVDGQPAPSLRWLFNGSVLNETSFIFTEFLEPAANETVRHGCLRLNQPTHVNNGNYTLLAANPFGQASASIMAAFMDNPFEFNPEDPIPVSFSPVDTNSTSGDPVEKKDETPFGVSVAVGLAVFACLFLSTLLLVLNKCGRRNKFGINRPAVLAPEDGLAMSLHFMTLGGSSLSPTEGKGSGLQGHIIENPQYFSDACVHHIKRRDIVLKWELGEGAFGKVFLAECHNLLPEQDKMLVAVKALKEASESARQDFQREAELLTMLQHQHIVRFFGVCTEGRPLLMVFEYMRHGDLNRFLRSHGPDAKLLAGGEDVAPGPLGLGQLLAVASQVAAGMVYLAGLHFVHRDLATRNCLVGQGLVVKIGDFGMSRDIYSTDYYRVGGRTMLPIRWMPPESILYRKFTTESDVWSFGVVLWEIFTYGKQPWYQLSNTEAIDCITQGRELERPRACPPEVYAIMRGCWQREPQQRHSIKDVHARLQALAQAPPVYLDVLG
# [19] = biological target: Interleukin-1 receptor-associated kinase 4 (Homo sapiens) (UniProt Q9NWZ3)
# Chain of Interleukin-1 receptor-associated kinase 4 (Homo sapiens) (Q9NWZ3 whole entry): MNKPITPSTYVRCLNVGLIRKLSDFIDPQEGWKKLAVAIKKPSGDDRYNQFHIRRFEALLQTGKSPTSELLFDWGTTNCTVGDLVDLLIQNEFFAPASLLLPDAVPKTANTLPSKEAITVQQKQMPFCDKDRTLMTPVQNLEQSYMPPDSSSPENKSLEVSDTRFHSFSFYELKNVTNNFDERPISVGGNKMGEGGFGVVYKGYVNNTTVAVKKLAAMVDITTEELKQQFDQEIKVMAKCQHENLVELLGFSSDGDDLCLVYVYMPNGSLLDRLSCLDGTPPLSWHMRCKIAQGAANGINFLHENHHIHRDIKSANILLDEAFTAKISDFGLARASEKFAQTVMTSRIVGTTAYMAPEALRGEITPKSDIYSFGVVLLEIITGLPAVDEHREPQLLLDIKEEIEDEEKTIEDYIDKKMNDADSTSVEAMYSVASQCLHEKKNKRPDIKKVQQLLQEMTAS
# [20] = biological target: Activated CDC42 kinase 1 (Homo sapiens) (UniProt Q07912); details: Compound concentration 1.0 uM
# [21] = biological target: Tyrosine-protein kinase CSK (Homo sapiens) (UniProt P41240); assay: CSK DUNDEE kinase screen (BI); details: Compound concentration 10.0 uM
# Chain of Tyrosine-protein kinase CSK (Homo sapiens) (P41240 2-450 limits assumed): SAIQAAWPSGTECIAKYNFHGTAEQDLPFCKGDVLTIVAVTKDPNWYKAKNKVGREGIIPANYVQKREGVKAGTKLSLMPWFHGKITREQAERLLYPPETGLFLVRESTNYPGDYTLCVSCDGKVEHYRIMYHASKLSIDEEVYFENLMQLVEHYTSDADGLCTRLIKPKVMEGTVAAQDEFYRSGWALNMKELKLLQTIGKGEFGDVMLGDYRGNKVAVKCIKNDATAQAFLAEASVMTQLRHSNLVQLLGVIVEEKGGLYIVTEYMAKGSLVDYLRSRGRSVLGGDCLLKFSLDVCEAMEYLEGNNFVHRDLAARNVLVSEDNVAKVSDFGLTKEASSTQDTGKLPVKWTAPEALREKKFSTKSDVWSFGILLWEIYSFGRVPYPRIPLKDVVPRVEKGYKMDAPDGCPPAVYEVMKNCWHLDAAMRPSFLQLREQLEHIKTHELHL
# [22] = biological target: Serine/threonine-protein kinase N2 (Homo sapiens) (UniProt Q16513); assay: PKN2 Invitrogen Lab (UK) kinase screen (BI); details: Compound concentration 1.0 uM
# [23] = biological target: Aurora kinase A (Homo sapiens) (UniProt O14965)
# Chain of Aurora kinase A (Homo sapiens) (O14965 whole entry): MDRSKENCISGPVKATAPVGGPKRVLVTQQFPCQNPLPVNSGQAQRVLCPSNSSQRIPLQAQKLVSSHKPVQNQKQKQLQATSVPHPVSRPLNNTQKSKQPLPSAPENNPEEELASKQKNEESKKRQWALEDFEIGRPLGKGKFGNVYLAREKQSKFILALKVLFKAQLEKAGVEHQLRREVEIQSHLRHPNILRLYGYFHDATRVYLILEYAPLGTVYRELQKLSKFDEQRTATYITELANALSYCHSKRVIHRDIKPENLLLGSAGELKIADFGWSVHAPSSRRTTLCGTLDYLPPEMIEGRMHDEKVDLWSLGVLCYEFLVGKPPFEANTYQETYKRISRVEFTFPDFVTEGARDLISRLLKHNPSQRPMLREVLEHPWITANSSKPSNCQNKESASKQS
# [24] = biological target: Mitogen-activated protein kinase kinase kinase kinase 5 (Homo sapiens) (UniProt Q9Y4K4); details: Compound concentration 1.0 uM
# [25] = biological target: Prostaglandin G/H synthase 1 (Homo sapiens) (UniProt P23219); details: Compound concentration 10.0 uM
# [26] = biological target: RAC-gamma serine/threonine-protein kinase (Homo sapiens) (UniProt Q9Y243); details: Compound concentration 1.0 uM
# [27] = biological target: T1, Cyclin-G-associated kinase (Homo sapiens, UniProt O14976); assay: Dose response measurement (GAK)
# T1 sequence (O14976 whole entry): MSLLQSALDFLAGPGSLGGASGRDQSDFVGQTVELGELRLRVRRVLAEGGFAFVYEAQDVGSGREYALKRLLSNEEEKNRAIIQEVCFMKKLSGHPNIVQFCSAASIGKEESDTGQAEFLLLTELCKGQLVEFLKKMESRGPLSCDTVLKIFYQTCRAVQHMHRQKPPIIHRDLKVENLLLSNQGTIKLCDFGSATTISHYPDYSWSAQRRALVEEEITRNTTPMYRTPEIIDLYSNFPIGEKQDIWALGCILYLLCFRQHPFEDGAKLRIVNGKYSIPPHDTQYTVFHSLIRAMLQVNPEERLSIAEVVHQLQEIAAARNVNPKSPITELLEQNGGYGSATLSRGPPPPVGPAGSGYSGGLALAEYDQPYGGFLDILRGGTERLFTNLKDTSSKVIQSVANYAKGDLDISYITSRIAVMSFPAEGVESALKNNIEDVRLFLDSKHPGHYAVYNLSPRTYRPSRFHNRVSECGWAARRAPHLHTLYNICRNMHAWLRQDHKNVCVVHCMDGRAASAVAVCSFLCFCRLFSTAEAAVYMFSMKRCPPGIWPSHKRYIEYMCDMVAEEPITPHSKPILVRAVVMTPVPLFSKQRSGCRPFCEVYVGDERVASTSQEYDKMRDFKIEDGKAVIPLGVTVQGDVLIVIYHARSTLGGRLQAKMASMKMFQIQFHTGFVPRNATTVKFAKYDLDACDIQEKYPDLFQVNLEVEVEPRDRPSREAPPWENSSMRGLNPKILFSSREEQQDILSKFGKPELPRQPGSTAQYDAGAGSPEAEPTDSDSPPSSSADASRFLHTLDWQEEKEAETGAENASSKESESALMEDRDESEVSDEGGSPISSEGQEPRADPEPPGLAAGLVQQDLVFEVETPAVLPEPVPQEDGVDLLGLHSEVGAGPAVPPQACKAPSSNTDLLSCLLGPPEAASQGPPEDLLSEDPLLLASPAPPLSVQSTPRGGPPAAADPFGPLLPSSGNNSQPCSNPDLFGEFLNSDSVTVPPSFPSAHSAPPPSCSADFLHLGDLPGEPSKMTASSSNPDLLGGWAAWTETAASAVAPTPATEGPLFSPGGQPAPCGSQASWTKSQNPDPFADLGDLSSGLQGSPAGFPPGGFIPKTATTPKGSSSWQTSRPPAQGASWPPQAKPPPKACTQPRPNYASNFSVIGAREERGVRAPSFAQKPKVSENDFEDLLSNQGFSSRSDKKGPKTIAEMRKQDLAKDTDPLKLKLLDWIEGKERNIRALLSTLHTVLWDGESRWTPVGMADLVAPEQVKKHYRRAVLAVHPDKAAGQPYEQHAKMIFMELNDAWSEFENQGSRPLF
# [28] = biological target: Inactive tyrosine-protein kinase PEAK1 (Homo sapiens) (UniProt Q9H792); details: Compound concentration 1.0 uM
# [29] = biological target: Phosphatidylinositol 5-phosphate 4-kinase type-2 alpha (Homo sapiens) (UniProt P48426); assay: PIP4K2A Invitrogen Lab (UK) kinase screen (BI); details: Compound concentration 1.0 uM
# [30] = biological target: Protein kinase C alpha type (Homo sapiens) (UniProt P17252); assay: PRKCA Invitrogen Lab (UK) kinase screen (BI); details: Compound concentration 1.0 uM
# [31] = biological target: Ankyrin repeat and protein kinase domain-containing protein 1 (Homo sapiens) (UniProt Q8NFD2); details: Compound concentration 1.0 uM
# [32] = biological target: Mitogen-activated protein kinase kinase kinase 21 (Homo sapiens) (UniProt Q5TCX8); details: Compound concentration 1.0 uM
# [33] = biological target: Alpha-2B adrenergic receptor (Homo sapiens) (UniProt P18089); details: Compound concentration 10.0 uM
# [34] = biological target: Sodium/potassium-transporting ATPase (Sus scrofa) (UniProt P05027+P05024+D2WKD8+D2WKD7+F1ST41); details: Compound concentration 10.0 uM
# [35] = biological target: Calcium/calmodulin-dependent protein kinase type II subunit delta (Homo sapiens) (UniProt Q13557); details: Compound concentration 1.0 uM
# [36] = biological target: Tyrosine-protein kinase TXK (Homo sapiens) (UniProt P42681); details: Compound concentration 1.0 uM
# [37] = biological target: Serine/threonine-protein kinase 4 (Homo sapiens) (UniProt Q13043); assay: STK4 Invitrogen Lab (UK) kinase screen (BI); details: Compound concentration 1.0 uM
# [38] = biological target: MAP kinase-interacting serine/threonine-protein kinase 2 (Homo sapiens) (UniProt Q9HBH9); assay: MNK2 ALPHA DUNDEE kinase screen (BI); details: Compound concentration 10.0 uM
# [39] = biological target: Protein kinase C epsilon type (Homo sapiens) (UniProt Q02156); assay: PRKCE Invitrogen Lab (UK) kinase screen (BI); details: Compound concentration 1.0 uM
# [40] = biological target: T1, Cyclin-G-associated kinase; assay: NanoBRET (SGC-FFM) (GAK)
# [41] = biological target: MAP kinase-activated protein kinase 3 (Homo sapiens) (UniProt Q16644); details: Compound concentration 1.0 uM
# [42] = biological target: Dual specificity testis-specific protein kinase 1 (Homo sapiens) (UniProt Q15569); details: Compound concentration 1.0 uM
smiles,measurement,setting,value
CCC(F)(F)c1cc(N2CCC(S(C)(=O)=O)CC2)nc2sc(C(N)=O)c(N)c12 [BI-605906],residual activity,[1],57.7%
same,inhibition,[2],6.1%
same,residual activity,[3],89%
same,residual activity,[4],105%
same,residual activity,[5],84%
same,residual activity,[6],88%
same,residual activity,[7],75%
same,inhibition,[8],8.92%
same,inhibition,[9],8.09%
same,residual activity,[10],101%
same,residual activity,[11],99%
same,residual activity,[12]; Compound concentration 1.0 uM,93%
same,residual activity,[12]; Compound concentration 10.0 uM,82%
same,residual activity,[13]; Compound concentration 1.0 uM,94%
same,residual activity,[13]; Compound concentration 10.0 uM,66%
same,residual activity,[14],90%
same,residual activity,[15],99%
same,residual activity,[16],40.1%
same,residual activity,[17],78.2%
same,residual activity,[18]; Compound concentration 1.0 uM,81%
same,residual activity,[18]; Compound concentration 10.0 uM,83%
same,residual activity,[19]; Compound concentration 1.0 uM,100%
same,residual activity,[19]; Compound concentration 10.0 uM,90%
same,residual activity,[20],97%
same,residual activity,[21],78.3%
same,residual activity,[22],86%
same,residual activity,[23]; Compound concentration 1.0 uM,93%
same,residual activity,[23]; Compound concentration 10.0 uM,38%
same,residual activity,[24],101%
same,residual activity,[25],105%
same,residual activity,[26],91%
same,IC50,[27],188 nM
same,residual activity,[28],94%
same,residual activity,[29],115%
same,residual activity,[30],85%
same,residual activity,[31],95%
same,residual activity,[32],97%
same,inhibition,[33],9.66%
same,residual activity,[34],105%
same,residual activity,[35],96%
same,residual activity,[36],93%
same,residual activity,[37],102%
same,residual activity,[38],67.2%
same,residual activity,[39],127%
same,IC50,[40],6500 nM (not active)
same,residual activity,[41],93%
same,residual activity,[42],92%
